Results published in patent US20230276831A1, “Food/Beverage Article” (Kikkoman Corporation, priority 2020, published 2023).

Tested on: Lactobacillus rennini (DSM 20253)
Test: Antimicrobial action of licoricidin in soy sauce at various pH (Test Example 5)
Type: cell-based
Parameters: key: A: The bacterial count decreases to less than 10% of the bacterial count of the control group.; B: The bacterial count decreases to 10% or more and less than 50% of the bacterial count of the control group.; C: The bacterial count decreases to 50% or more and less than 100% of the bacterial count of control group.; D: The bacterial count is the same as the bacterial count of the control group
Protocol: Commercially available whole soybean soy sauce (produced by Kikkoman Corporation) was electrodialyzed and then concentrated under reduced pressure to obtain soy sauce at a salt concentration of 0% (w/v) and an alcohol concentration of 0% (v/v). Then, salt and/or alcohol was added to the above-mentioned obtained soy sauce, and hydrochloric acid or an aqueous sodium hydroxide solution was then added to adjust the pH to a desired pH. Germfree purified water was added, and the mixture was then heat-treated to produce soy sauce at the salt concentration, the alcohol concentration, and the pH shown in the following Table 17.
Licoricidin (produced by ChemFaces) was added to each of the obtained soy sauces to concentrations of 1 ppm, 5 ppm, 10 ppm, 25 ppm, and 50 ppm. Lactic acid bacteria (Lactobacillus rennini (DSM 20253)) were then added to 10^6 to 10^7 cells/mL and cultured at 30° C. for 7 days. After the culture, the number of lactic acid bacteria was measured using the GAM agar medium “Nissui”. Soy sauce to which licoricidin was not added was used as a control group, and the antimicrobial activity was evaluated in comparison with the number of lactic acid bacteria in the control group. The evaluation was performed using the same criterion as in Test Example 4.

COc1c(CC=C(C)C)c(O)cc2c1C[C@H](c1ccc(O)c(CC=C(C)C)c1O)CO2 [Licoricidin, 4-[(R)-7-hydroxy-5-methoxy-6-(3-methyl-2-butenyl)chroman-3-yl]-2-(3-methyl-2-butenyl)-1,3-benzenediol]
Antimicrobial activity (salt 0% (w/v), pH 4.2, alcohol 0% (v/v), licoricidin 1 ppm): B (The bacterial count decreases to 10% or more and less than 50% of the bacterial count of the control group.) | Antimicrobial activity (salt 0% (w/v), pH 4.2, alcohol 0% (v/v), licoricidin 5 ppm): B (The bacterial count decreases to 10% or more and less than 50% of the bacterial count of the control group.) | Antimicrobial activity (salt 0% (w/v), pH 4.2, alcohol 0% (v/v), licoricidin 10 ppm): A (The bacterial count decreases to less than 10% of the bacterial count of the control group.) | Antimicrobial activity (salt 0% (w/v), pH 4.2, alcohol 0% (v/v), licoricidin 25 ppm): A (The bacterial count decreases to less than 10% of the bacterial count of the control group.) | Antimicrobial activity (salt 0% (w/v), pH 4.2, alcohol 0% (v/v), licoricidin 50 ppm): A (The bacterial count decreases to less than 10% of the bacterial count of the control group.) | Antimicrobial activity (salt 0% (w/v), pH 4.2, alcohol 5% (v/v), licoricidin 1 ppm): B (The bacterial count decreases to 10% or more and less than 50% of the bacterial count of the control group.) | Antimicrobial activity (salt 0% (w/v), pH 4.2, alcohol 5% (v/v), licoricidin 5 ppm): A (The bacterial count decreases to less than 10% of the bacterial count of the control group.) | Antimicrobial activity (salt 0% (w/v), pH 4.2, alcohol 5% (v/v), licoricidin 10 ppm): A (The bacterial count decreases to less than 10% of the bacterial count of the control group.) | Antimicrobial activity (salt 0% (w/v), pH 4.2, alcohol 5% (v/v), licoricidin 25 ppm): A (The bacterial count decreases to less than 10% of the bacterial count of the control group.) | Antimicrobial activity (salt 0% (w/v), pH 4.2, alcohol 5% (v/v), licoricidin 50 ppm): A (The bacterial count decreases to less than 10% of the bacterial count of the control group.) | Antimicrobial activity (salt 0% (w/v), pH 4.6, alcohol 0% (v/v), licoricidin 1 ppm): C (The bacterial count decreases to 50% or more and less than 100% of the bacterial count of control group.) | Antimicrobial activity (salt 0% (w/v), pH 4.6, alcohol 0% (v/v), licoricidin 5 ppm): B (The bacterial count decreases to 10% or more and less than 50% of the bacterial count of the control group.) | Antimicrobial activity (salt 0% (w/v), pH 4.6, alcohol 0% (v/v), licoricidin 10 ppm): A (The bacterial count decreases to less than 10% of the bacterial count of the control group.) | Antimicrobial activity (salt 0% (w/v), pH 4.6, alcohol 0% (v/v), licoricidin 25 ppm): A (The bacterial count decreases to less than 10% of the bacterial count of the control group.) | Antimicrobial activity (salt 0% (w/v), pH 4.6, alcohol 0% (v/v), licoricidin 50 ppm): A (The bacterial count decreases to less than 10% of the bacterial count of the control group.) | Antimicrobial activity (salt 0% (w/v), pH 4.6, alcohol 5% (v/v), licoricidin 1 ppm): C (The bacterial count decreases to 50% or more and less than 100% of the bacterial count of control group.) | Antimicrobial activity (salt 0% (w/v), pH 4.6, alcohol 5% (v/v), licoricidin 5 ppm): A (The bacterial count decreases to less than 10% of the bacterial count of the control group.) | Antimicrobial activity (salt 0% (w/v), pH 4.6, alcohol 5% (v/v), licoricidin 10 ppm): A (The bacterial count decreases to less than 10% of the bacterial count of the control group.) | Antimicrobial activity (salt 0% (w/v), pH 4.6, alcohol 5% (v/v), licoricidin 25 ppm): A (The bacterial count decreases to less than 10% of the bacterial count of the control group.) | Antimicrobial activity (salt 0% (w/v), pH 4.6, alcohol 5% (v/v), licoricidin 50 ppm): A (The bacterial count decreases to less than 10% of the bacterial count of the control group.) | Antimicrobial activity (salt 0% (w/v), pH 5.0, alcohol 0% (v/v), licoricidin 1 ppm): D | Antimicrobial activity (salt 0% (w/v), pH 5.0, alcohol 0% (v/v), licoricidin 5 ppm): B (The bacterial count decreases to 10% or more and less than 50% of the bacterial count of the control group.) | Antimicrobial activity (salt 0% (w/v), pH 5.0, alcohol 0% (v/v), licoricidin 10 ppm): B (The bacterial count decreases to 10% or more and less than 50% of the bacterial count of the control group.) | Antimicrobial activity (salt 0% (w/v), pH 5.0, alcohol 0% (v/v), licoricidin 25 ppm): A (The bacterial count decreases to less than 10% of the bacterial count of the control group.) | Antimicrobial activity (salt 0% (w/v), pH 5.0, alcohol 0% (v/v), licoricidin 50 ppm): A (The bacterial count decreases to less than 10% of the bacterial count of the control group.) | Antimicrobial activity (salt 0% (w/v), pH 5.0, alcohol 5% (v/v), licoricidin 1 ppm): C (The bacterial count decreases to 50% or more and less than 100% of the bacterial count of control group.) | Antimicrobial activity (salt 0% (w/v), pH 5.0, alcohol 5% (v/v), licoricidin 5 ppm): B (The bacterial count decreases to 10% or more and less than 50% of the bacterial count of the control group.) | Antimicrobial activity (salt 0% (w/v), pH 5.0, alcohol 5% (v/v), licoricidin 10 ppm): B (The bacterial count decreases to 10% or more and less than 50% of the bacterial count of the control group.) | Antimicrobial activity (salt 0% (w/v), pH 5.0, alcohol 5% (v/v), licoricidin 25 ppm): A (The bacterial count decreases to less than 10% of the bacterial count of the control group.) | Antimicrobial activity (salt 0% (w/v), pH 5.0, alcohol 5% (v/v), licoricidin 50 ppm): A (The bacterial count decreases to less than 10% of the bacterial count of the control group.) | Antimicrobial activity (salt 0% (w/v), pH 5.4, alcohol 0% (v/v), licoricidin 1 ppm): D | Antimicrobial activity (salt 0% (w/v), pH 5.4, alcohol 0% (v/v), licoricidin 5 ppm): D | Antimicrobial activity (salt 0% (w/v), pH 5.4, alcohol 0% (v/v), licoricidin 10 ppm): C (The bacterial count decreases to 50% or more and less than 100% of the bacterial count of control group.) | Antimicrobial activity (salt 0% (w/v), pH 5.4, alcohol 0% (v/v), licoricidin 25 ppm): C (The bacterial count decreases to 50% or more and less than 100% of the bacterial count of control group.) | Antimicrobial activity (salt 0% (w/v), pH 5.4, alcohol 0% (v/v), licoricidin 50 ppm): C (The bacterial count decreases to 50% or more and less than 100% of the bacterial count of control group.) | Antimicrobial activity (salt 0% (w/v), pH 5.4, alcohol 5% (v/v), licoricidin 1 ppm): B (The bacterial count decreases to 10% or more and less than 50% of the bacterial count of the control group.) | Antimicrobial activity (salt 0% (w/v), pH 5.4, alcohol 5% (v/v), licoricidin 5 ppm): A (The bacterial count decreases to less than 10% of the bacterial count of the control group.) | Antimicrobial activity (salt 0% (w/v), pH 5.4, alcohol 5% (v/v), licoricidin 10 ppm): A (The bacterial count decreases to less than 10% of the bacterial count of the control group.) | Antimicrobial activity (salt 0% (w/v), pH 5.4, alcohol 5% (v/v), licoricidin 25 ppm): A (The bacterial count decreases to less than 10% of the bacterial count of the control group.) | Antimicrobial activity (salt 0% (w/v), pH 5.4, alcohol 5% (v/v), licoricidin 50 ppm): A (The bacterial count decreases to less than 10% of the bacterial count of the control group.) | Antimicrobial activity (salt 0% (w/v), pH 5.8, alcohol 0% (v/v), licoricidin 1 ppm): D | Antimicrobial activity (salt 0% (w/v), pH 5.8, alcohol 0% (v/v), licoricidin 5 ppm): D | Antimicrobial activity (salt 0% (w/v), pH 5.8, alcohol 0% (v/v), licoricidin 10 ppm): D | Antimicrobial activity (salt 0% (w/v), pH 5.8, alcohol 0% (v/v), licoricidin 25 ppm): D | Antimicrobial activity (salt 0% (w/v), pH 5.8, alcohol 0% (v/v), licoricidin 50 ppm): D | Antimicrobial activity (salt 0% (w/v), pH 5.8, alcohol 5% (v/v), licoricidin 1 ppm): B (The bacterial count decreases to 10% or more and less than 50% of the bacterial count of the control group.) | Antimicrobial activity (salt 0% (w/v), pH 5.8, alcohol 5% (v/v), licoricidin 5 ppm): A (The bacterial count decreases to less than 10% of the bacterial count of the control group.) | Antimicrobial activity (salt 0% (w/v), pH 5.8, alcohol 5% (v/v), licoricidin 10 ppm): A (The bacterial count decreases to less than 10% of the bacterial count of the control group.) | Antimicrobial activity (salt 0% (w/v), pH 5.8, alcohol 5% (v/v), licoricidin 25 ppm): A (The bacterial count decreases to less than 10% of the bacterial count of the control group.) | Antimicrobial activity (salt 0% (w/v), pH 5.8, alcohol 5% (v/v), licoricidin 50 ppm): A (The bacterial count decreases to less than 10% of the bacterial count of the control group.) | Antimicrobial activity (salt 4% (w/v), pH 4.2, alcohol 0% (v/v), licoricidin 1 ppm): B (The bacterial count decreases to 10% or more and less than 50% of the bacterial count of the control group.) | Antimicrobial activity (salt 4% (w/v), pH 4.2, alcohol 0% (v/v), licoricidin 5 ppm): A (The bacterial count decreases to less than 10% of the bacterial count of the control group.) | Antimicrobial activity (salt 4% (w/v), pH 4.2, alcohol 0% (v/v), licoricidin 10 ppm): A (The bacterial count decreases to less than 10% of the bacterial count of the control group.)
